Data reported in patent US10597388B2, “Pyridazinone herbicides” (FMC CORPORATION, priority 2014, dated 2020).

Columns and labels:
Assay type in all cases: in vivo
[1] = test system: barnyardgrass (Echinochloa crus-galli); assay: Test A greenhouse herbicide test, pre- and postemergence
In short: (§1)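 Seeds sown in loam–sand blend got a preemergence directed soil spray of compound in non-phytotoxic solvent with surfactant. Postemergence treatment was given at 2–10 cm, one- to two-leaf stage. After ~10 d in greenhouse, injury was rated visually vs untreated controls, 0 (no effect) to 100 (complete control).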

[2] = test system: corn (Zea mays); assay: as above; conditions: Postemergence
In short: as §1

[3] = test system: foxtail, giant (giant foxtail, Setaria faberii); assay: as above
In short: as §1

[4] = test system: kochia (Kochia scoparia); assay: as above
In short: as §1

[5] = test system: pigweed (Amaranthus retroflexus); assay: as above
In short: as §1

[6] = test system: ragweed (common ragweed, Ambrosia elatior); assay: as above
In short: as §1

[7] = test system: ryegrass, Italian (Italian ryegrass, Lolium multiflorum); assay: as above
In short: as §1

[8] = test system: wheat (Triticum aestivum); assay: as above; conditions: Postemergence
In short: as §1

[9] = test system: blackgrass (Alopecurus myosuroides); assay: Test A greenhouse herbicide test, postemergence
In short: (§2)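 Plants grown in loam soil/sand blend pots were treated postemergence at 2 to 10 cm height, one- to two-leaf stage, with formulated test chemicals. After approximately 10 d in a greenhouse, injury was rated visually against untreated controls on a 0 to 100 scale (0 no effect, 100 complete control).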

[10] = test system: galium (catchweed bedstraw, Galium aparine); assay: Test A greenhouse herbicide test, postemergence
In short: as §2

[11] = test system: kochia (Kochia scoparia); assay: Test C greenhouse herbicide test, postemergence; conditions: Postemergence
In short: (§3)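 Visual injury scores (0–100, where 100 means complete control) were assigned 13 to 15 d after postemergence application, by comparison with untreated plants. Treated seedlings stood 2 to 18 cm tall, at the 1- to 4-leaf stage.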

[12] = test system: oat, wild (wild oat, Avena fatua); assay: Test C greenhouse herbicide test, postemergence; conditions: Postemergence
In short: as §3

[13] = Postemergence, 125 g ai/ha, 0 to 100 scale where 0 is no effect and 100 is complete control
[14] = Postemergence, 500 g ai/ha, visual rating after approx. 10 d, 0 to 100 scale (0 no effect, 100 complete control)
[15] = Preemergence, 125 g ai/ha, 0 to 100 scale where 0 is no effect and 100 is complete control
[16] = Preemergence, 500 g ai/ha, 0 to 100 scale where 0 is no effect and 100 is complete control
[17] = 125 g ai/ha, 0 to 100 scale where 0 is no effect and 100 is complete control
[18] = 500 g ai/ha, visual rating after approx. 10 d, 0 to 100 scale (0 no effect, 100 complete control)
[19] = 31 g ai/ha, scale 0 to 100 (0 no effect, 100 complete control)
[20] = 125 g ai/ha, scale 0 to 100, 0 is no effect, 100 is complete control
[21] = 250 g ai/ha, scale 0 to 100, 0 no effect, 100 complete control, 13 to 15 d

## Cc1ccc2ccccc2c1-c1c(O)c(Cl)nn(C)c1=O [Compound 125]
[1]; [13]
  Plant response rating, Barnyardgrass: 90
[1]; [14]
  Plant response rating, Barnyardgrass: 90
[1]; [15]
  Barnyardgrass plant response rating: 70
[1]; [16]
  Plant response rating, Barnyardgrass: 90
[2]; [17]
  Plant response rating, Corn: 20
[2]; [18]
  Plant response rating, Corn: 30
[3]; [13]
  Plant response rating, Foxtail, Giant: 90
[3]; [14]
  Plant response rating, Foxtail, Giant: 90
[3]; [15]
  Foxtail, Giant plant response rating: 90
[3]; [16]
  Plant response rating, Foxtail, Giant: 100
[4]; [13]
  Plant response rating, Kochia: 100
[4]; [14]
  Plant response rating, Kochia: 100
[4]; [15]
  Kochia plant response rating: 60
[4]; [16]
  Plant response rating, Kochia: 90
[5]; [13]
  Plant response rating, Pigweed: 100
[5]; [14]
  Plant response rating, Pigweed: 100
[5]; [15]
  Pigweed plant response rating: 100
[5]; [16]
  Plant response rating, Pigweed: 100
[6]; [13]
  Plant response rating, Ragweed: 90
[6]; [14]
  Plant response rating, Ragweed: 100
[6]; [15]
  Ragweed plant response rating: 80
[6]; [16]
  Plant response rating, Ragweed: 90
[7]; [13]
  Plant response rating, Ryegrass, Italian: 100
[7]; [14]
  Plant response rating, Ryegrass, Italian: 100
[7]; [15]
  Ryegrass, Italian plant response rating: 100
[7]; [16]
  Plant response rating, Ryegrass, Italian: 100
[8]; [17]
  Plant response rating, Wheat: 50
[8]; [18]
  Plant response rating, Wheat: 80
[9]; [17]
  Plant response rating, Blackgrass: 70
[9]; [18]
  Plant response rating, Blackgrass: 80
[10]; [17]
  Plant response rating, Galium: 90
[10]; [18]
  Plant response rating, Galium: 90
[11]; [19]
  Plant response rating, Kochia: 85
[11]; [20]
  Plant response rating, Kochia: 90
[11]; [21]
  Plant response rating, Kochia: 90
[12]; [19]
  Plant response rating, Oat, Wild: 85
[12]; [20]
  Plant response rating, Oat, Wild: 95
[12]; [21]
  Plant response rating, Oat, Wild: 95
